Measured values as given in patent publication US10526316B2, “Quinoxaline and pyridopyrazine derivatives as PI3Kβ inhibitors” (Janssen Pharmaceutica NV, priority 2015, dated 2020).
pIC50, pKd: −log10 of the molar value.

How the values were obtained:
kinase enzymes [1] = target: T1, kinase enzymes (Homo sapiens, UniProt P42336); assay: Enzyme binding assay (KINOMEscan, DiscoveRx), further kinases of Table A; conditions: PIK3Cα_h
T1 construct: purchased DiscoveRx Corporation, San Diego (contract service, KINOMEscan)
Procedure: (§1) Enzyme Binding Assays (KINOMEscan®)
(§2) Kinase enzyme binding affinities of compounds disclosed herein were determined using the KINOMEscan technology performed by DiscoveRx Corporation, San Diego, Calif., USA (www.kinomescan.com).

kinase enzymes [2] = target: T2, kinase enzymes (Homo sapiens, UniProt P48736); assay: as above; conditions: PIK3Cγ_h
T2 construct: purchased DiscoveRx Corporation, San Diego (contract service, KINOMEscan)
Procedure: as §1, §2

kinase enzymes [3] = target: T3, kinase enzymes (Homo sapiens, UniProt P42345); assay: as above; conditions: MTOR_h
T3 construct: purchased DiscoveRx Corporation, San Diego (contract service, KINOMEscan)
Procedure: as §1, §2

PI3Kβ = target: T4, PI3Kβ (Homo sapiens, UniProt P42338); assay: Enzyme binding assay (KINOMEscan, DiscoveRx); conditions: PIK3Cβ_h, read-out: Kd PIK3Cβ_h
T4 construct: purchased DiscoveRx Corporation, San Diego (contract service, KINOMEscan)
Procedure: as §1
Kinase enzyme binding affinities of compounds disclosed herein were determined using the KINOMEscan technology performed by DiscoveRx Corporation, San Diego, Calif., USA (www.kinomescan.com). Table A reports the obtained Kd values (nM), with the Kd being the inhibitor binding constant: […]

PI3Kδ = target: T5, PI3Kδ (Homo sapiens, UniProt O00329); assay: Enzyme binding assay (KINOMEscan, DiscoveRx); conditions: PIK3Cδ_h
T5 construct: purchased DiscoveRx Corporation, San Diego (contract service, KINOMEscan)
T5 sequence (O00329 1-1044): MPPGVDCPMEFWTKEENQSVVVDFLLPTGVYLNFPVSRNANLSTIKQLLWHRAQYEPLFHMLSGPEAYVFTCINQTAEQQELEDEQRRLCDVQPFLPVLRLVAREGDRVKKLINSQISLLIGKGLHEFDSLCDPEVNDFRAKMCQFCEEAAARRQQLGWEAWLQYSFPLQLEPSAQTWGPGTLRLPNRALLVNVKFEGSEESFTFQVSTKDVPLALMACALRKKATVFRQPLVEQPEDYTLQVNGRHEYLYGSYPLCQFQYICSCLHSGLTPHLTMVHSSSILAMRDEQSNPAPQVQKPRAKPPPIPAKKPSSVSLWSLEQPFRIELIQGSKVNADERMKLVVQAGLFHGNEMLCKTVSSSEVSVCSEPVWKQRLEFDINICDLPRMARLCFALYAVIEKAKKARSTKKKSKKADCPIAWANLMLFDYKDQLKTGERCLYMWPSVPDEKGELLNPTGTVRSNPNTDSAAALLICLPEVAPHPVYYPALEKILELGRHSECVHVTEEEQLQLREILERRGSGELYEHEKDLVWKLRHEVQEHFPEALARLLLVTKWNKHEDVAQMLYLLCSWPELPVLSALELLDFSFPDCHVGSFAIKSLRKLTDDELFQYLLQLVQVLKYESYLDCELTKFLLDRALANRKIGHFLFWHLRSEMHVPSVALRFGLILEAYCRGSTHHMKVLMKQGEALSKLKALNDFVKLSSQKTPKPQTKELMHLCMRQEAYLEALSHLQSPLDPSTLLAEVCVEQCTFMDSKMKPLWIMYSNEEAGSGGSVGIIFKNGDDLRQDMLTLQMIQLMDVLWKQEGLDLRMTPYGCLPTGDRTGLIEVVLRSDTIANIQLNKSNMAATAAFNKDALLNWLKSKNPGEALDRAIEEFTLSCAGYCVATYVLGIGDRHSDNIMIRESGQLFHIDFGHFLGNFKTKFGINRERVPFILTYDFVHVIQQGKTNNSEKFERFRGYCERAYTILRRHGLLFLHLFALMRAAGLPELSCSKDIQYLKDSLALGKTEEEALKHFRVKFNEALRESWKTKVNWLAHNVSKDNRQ
Procedure: as §1, §2

[4] = system: Akt phosphorylated at Ser473 in PC-3 cells; assay: Cellular assay: phosphorylation of Akt at Ser473 in PC-3 cells (MSD ELISA); assay type: cell-based; conditions: PC-3 cells, 60 min compound incubation, MSD ELISA; read-out: IC50 pAkt_S473
Procedure: (§3) Cellular activity of PI3KP inhibitors was determined by quantifying the phosphorylation of Akt in PC-3 cells. Akt phosphorylated at Ser473 and Thr308 were measured using an enzyme-linked immunosorbent assay (ELISA; Meso Scale Discovery (MSD), Gaithersburg. Md.) and specific primary antibodies from MSD.
(§4) On day 2, compound or DMSO (0.3%) was added and cells were further incubated for 60 min at 37° C. 5% CO2 in a total volume of 100 μl of medium.
(§5) The phosphoprotein assay was executed according to vendor instructions in the Phospho-Akt (Ser473) Assay Whole Cell Lysate Kit (MSD # K15100D-3) and the Phospho-Akt (Thr308) Assay Whole Cell Lysate Kit (MSD # K151DYD-3) using the lysis, blocking and wash buffer provided.
(§6) Briefly, at the end of the cell treatment period, media were removed by aspiration and adherent cells were lysed in 50 μl ice-cold lysis buffer. MSD plates are supplied pre-coated with capture antibodies for Phospho-Akt (Ser473 and Thr308). After blocking, lysates from tissue culture plates were added and plates were washed. Then, a solution containing the detection antibody (anti-total Akt conjugated with an electrochemiluminescent compound-MSD Sulfo-tag label) was added. The signals were detected using an MSD SECTOR Imager 6000 and are proportional to the phospho-Akt titres.
(§7) Data were processed. […] From these concentration-response curves, the IC50 values were calculated. Five concentrations were used for curve fitting.

[5] = system: Akt phosphorylated at Thr308 in PC-3 cells; assay: Cellular assay: phosphorylation of Akt at Thr308 in PC-3 cells (MSD ELISA); assay type: cell-based; conditions: PC-3 cells, 60 min compound incubation, MSD ELISA; read-out: IC50 pAkt_Thr308
Procedure: as §3, §4, §5, §6, §7

T1 sequence (P42336 whole entry): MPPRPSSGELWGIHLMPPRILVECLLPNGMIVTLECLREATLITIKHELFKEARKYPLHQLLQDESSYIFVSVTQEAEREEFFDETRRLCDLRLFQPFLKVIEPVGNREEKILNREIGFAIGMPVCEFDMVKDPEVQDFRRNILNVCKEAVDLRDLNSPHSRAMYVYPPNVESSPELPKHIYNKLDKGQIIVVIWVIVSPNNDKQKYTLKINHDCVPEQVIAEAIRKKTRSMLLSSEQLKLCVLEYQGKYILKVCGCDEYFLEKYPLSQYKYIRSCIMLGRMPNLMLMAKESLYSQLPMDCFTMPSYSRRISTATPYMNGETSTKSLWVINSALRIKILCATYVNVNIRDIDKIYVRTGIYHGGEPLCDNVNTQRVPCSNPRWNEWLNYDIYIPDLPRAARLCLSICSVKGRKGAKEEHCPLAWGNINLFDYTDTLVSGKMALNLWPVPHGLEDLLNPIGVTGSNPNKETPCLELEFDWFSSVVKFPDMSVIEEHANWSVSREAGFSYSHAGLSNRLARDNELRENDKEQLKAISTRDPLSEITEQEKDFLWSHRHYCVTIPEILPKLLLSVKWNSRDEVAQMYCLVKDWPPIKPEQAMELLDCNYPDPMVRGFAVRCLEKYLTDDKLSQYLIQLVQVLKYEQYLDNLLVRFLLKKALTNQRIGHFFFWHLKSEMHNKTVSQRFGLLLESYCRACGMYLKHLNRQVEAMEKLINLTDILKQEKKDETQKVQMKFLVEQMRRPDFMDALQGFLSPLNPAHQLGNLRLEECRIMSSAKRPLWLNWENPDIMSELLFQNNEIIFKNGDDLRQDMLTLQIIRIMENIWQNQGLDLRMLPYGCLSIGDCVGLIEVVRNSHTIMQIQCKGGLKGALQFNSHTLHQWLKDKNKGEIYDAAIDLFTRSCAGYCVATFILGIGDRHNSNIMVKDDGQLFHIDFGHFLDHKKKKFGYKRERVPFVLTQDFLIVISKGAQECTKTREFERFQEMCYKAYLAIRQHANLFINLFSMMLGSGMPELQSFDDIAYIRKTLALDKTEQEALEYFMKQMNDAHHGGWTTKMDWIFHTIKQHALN
T2 sequence (P48736 whole entry): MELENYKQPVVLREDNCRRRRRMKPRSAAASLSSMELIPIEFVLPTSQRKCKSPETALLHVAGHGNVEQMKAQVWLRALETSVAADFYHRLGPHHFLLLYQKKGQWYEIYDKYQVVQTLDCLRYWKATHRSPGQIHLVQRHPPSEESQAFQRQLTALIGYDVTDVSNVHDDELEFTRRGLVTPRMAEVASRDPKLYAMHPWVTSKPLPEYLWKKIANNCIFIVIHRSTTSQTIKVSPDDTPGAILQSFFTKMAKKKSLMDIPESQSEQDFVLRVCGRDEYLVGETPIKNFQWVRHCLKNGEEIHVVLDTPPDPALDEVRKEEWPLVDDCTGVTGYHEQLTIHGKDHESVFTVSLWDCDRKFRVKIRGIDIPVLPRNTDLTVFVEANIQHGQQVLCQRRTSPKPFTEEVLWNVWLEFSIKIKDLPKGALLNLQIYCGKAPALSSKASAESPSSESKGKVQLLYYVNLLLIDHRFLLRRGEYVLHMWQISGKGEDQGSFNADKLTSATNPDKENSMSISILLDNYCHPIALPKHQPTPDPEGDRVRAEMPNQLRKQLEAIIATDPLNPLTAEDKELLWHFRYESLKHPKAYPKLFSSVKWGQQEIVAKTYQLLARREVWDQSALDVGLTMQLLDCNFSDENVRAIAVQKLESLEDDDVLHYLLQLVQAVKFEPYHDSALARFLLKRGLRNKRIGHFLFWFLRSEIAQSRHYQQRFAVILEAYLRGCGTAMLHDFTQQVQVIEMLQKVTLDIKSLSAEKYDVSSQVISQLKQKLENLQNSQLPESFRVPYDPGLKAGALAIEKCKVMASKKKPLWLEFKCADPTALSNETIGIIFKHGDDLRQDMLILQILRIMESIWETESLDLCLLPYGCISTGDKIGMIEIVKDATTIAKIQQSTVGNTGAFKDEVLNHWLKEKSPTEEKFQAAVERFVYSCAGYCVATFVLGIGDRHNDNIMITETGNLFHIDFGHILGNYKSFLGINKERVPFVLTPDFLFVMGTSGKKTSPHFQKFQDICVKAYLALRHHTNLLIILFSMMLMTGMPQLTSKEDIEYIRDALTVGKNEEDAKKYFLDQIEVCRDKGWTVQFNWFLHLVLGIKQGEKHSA
T4 sequence (P42338 whole entry): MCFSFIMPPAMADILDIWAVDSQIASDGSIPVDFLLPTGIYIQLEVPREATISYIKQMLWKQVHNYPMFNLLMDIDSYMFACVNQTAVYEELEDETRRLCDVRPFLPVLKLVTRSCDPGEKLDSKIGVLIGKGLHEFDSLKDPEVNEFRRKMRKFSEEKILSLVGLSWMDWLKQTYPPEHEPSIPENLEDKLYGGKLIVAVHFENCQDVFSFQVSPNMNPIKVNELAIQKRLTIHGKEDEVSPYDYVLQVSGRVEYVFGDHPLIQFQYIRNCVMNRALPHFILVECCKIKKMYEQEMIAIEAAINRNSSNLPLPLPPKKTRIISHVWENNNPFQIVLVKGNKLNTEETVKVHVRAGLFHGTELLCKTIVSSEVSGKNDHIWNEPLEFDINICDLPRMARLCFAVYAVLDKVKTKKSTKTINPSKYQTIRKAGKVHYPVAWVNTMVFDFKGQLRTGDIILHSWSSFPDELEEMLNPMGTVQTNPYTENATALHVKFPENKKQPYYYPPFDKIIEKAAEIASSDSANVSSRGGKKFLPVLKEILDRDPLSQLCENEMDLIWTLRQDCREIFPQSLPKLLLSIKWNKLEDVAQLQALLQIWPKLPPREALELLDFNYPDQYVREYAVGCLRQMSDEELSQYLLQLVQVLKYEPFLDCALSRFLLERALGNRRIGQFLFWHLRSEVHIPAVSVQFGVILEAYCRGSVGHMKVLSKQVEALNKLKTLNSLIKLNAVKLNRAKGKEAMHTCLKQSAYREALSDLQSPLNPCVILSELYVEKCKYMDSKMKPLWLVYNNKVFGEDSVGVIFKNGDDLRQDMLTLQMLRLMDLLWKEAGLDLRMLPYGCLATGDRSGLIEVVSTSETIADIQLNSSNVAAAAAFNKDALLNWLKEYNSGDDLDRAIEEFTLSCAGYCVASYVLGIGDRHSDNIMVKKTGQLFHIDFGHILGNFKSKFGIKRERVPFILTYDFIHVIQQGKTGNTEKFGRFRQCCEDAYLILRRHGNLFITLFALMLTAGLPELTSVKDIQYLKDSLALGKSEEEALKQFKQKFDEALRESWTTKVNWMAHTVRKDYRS

Compound | pKd (kinase enzymes [1]) | pKd (kinase enzymes [2]) | pKd (kinase enzymes [3]) | pKd (PI3Kβ) | pKd (PI3Kδ) | pIC50 [4] | pIC50 [5]
CC(Nc1cc(F)cc(F)c1)c1cc(C(=O)N(C)CCN(C)C)cc2ncc(N3CCOCC3)nc12 (single isomer, unassigned) [Compound 182] | 6.90 | 6.04 | < 4.52 | 9.52 | 7.49 | 9.00 | –
CC(Nc1ccc(F)c(F)c1)c1cc(C(=O)NCCO)cc2ncc(N3CCOCC3)nc12 (single isomer, unassigned) [Compound 279b] | 4.58 | 5.19 | < 4.52 | 5.72 | – | 7.23 | < 6.29
CC(C)NCCNC(=O)c1cc(C(C)Oc2ccc(F)c(F)c2)c2nc(N3CCOCC3)cnc2c1 (single isomer, unassigned) [Compound 286b] | 5.22 | 4.79 | < 4.52 | 8.70 | 6.45 | – | 6.69
CC(Nc1ccc(F)c(F)c1)c1cc(C(=O)N2CC[C@@H](O)C2)cc2ncc(N3CCOCC3)nc12 (single isomer, unassigned) [Compound 300b] | 4.62 | < 4.52 | < 4.52 | 6.27 | 4.63 | – | –
CC(C)NCCNC(=O)c1cc(C(C)Oc2cccc(F)c2)c2nc(N3CCOCC3)cnc2c1 (single isomer, unassigned) [Compound 314b] | 5.05 | 4.78 | < 4.52 | 8.70 | 6.00 | 6.72 | –
CN(Cc1cc(F)cc(F)c1)c1cc(C(=O)N2CCNC(C(F)(F)F)C2)cc2ncc(N3CCOCC3)nc12 (single isomer, unassigned) [Compound 319a] | 5.04 | < 4.52 | < 4.52 | 6.70 | 5.55 | – | –
CC(Oc1ccc(F)c(F)c1)c1cc(C(=O)N2CC[C@H](N(C)C)C2)cc2ncc(N3CCOCC3)nc12 (single isomer, unassigned) [Compound 363b] | 4.50 | < 4.52 | 4.56 | 5.89 | 4.77 | – | –
CN[C@H]1CCN(C(=O)c2cc(C(C)Nc3ccc(F)c(F)c3)c3nc(N4CCOCC4)cnc3c2)C1 (single isomer, unassigned) [Compound 365b] | 4.81 | 4.64 | < 4.52 | 6.60 | 5.38 | – | –
CNCCN(C)C(=O)c1cc(C(C)Oc2cc(F)c(F)c(F)c2)c2nc(N3CCOCC3)cnc2c1 (single isomer, unassigned) [Compound 379b] | < 4.52 | < 4.52 | < 4.52 | 5.90 | < 4.52 | – | –
CC(Nc1cc(F)c(F)c(F)c1)c1cc(C(=O)N2CCCN(C(C)C)CC2)cc2ncc(N3CCOCC3)nc12 (single isomer, unassigned) [Compound 388a] | < 4.52 | < 4.52 | < 4.52 | 6.03 | < 4.52 | – | –
O=C(NCCO)c1cc(N2CCC2c2ccc(F)cc2)c2nc(N3CCOCC3)cnc2c1 (single isomer, unassigned) [Compound 391a] | < 4.52 | < 4.52 | 4.77 | 4.97 | < 4.52 | – | –
O=C(NCCO)c1cc(N2CCC2c2ccc(F)cc2)c2nc(N3CCOCC3)cnc2c1 (single isomer, unassigned) [Compound 391b] | < 4.52 | < 4.52 | < 4.52 | 4.71 | < 4.52 | – | –
